Source: patent US20130288990A1, “CONTROLLING PESTS BY COMBINING INSECTICIDES AND TRANSGENIC PLANTS BY APPLYING DIRECTLY TO LEAVES AND ROOTS” (priority 2007, published 2013)

How the values were obtained:
Type in all cases: in vivo
Aphis gossypii = Aphis gossypii test (leaf application), transgenic cotton
From the text: (§1) A synergistic effect in insecticides and acaricides is always present when the effect of the present invention's combinations is greater than the expected effect, which for a given combination can be calculated after S. R. Colby, Weeds 15 (1967), 20-22 as follows:
(§2) when • X is the kill rate expressed in % of the untreated control on using active compound A at an application rate of m g/ha or in a concentration of m ppm, • Y is the kill rate expressed in % of the untreated control on using active compound B at an application rate of n g/ha or in a concentration of n ppm and • Z is the kill rate expressed in % of the untreated control on using active compound C at an application rate of r g/ha or in a concentration of r ppm, • E is the efficacy on using active compounds A and B and C in application rates of m and n and r g/ha then
If the actual kill rate is greater than calculated, then the killing effect of the combination is superadditive, i.e., a synergistic effect is present. In this case, the actually observed kill rate has to be greater than that calculated from the above-recited formula for the expected kill rate (E). […]
After the desired time, the kill in % is determined 100% means that all the aphids were killed; 0% means that no aphids were killed.

Heliothis armigera = Heliothis armigera test (leaf application), transgenic cotton
From the text: as §1, §2
(§3) If the actual kill rate is greater than calculated, then the killing effect of the combination is superadditive, i.e., a synergistic effect is present. In this case, the actually observed kill rate has to be greater than that calculated from the above-recited formula for the expected kill rate (E).
Individually potted transgenic cotton plants with Lepidoptera resistance and herbicide resistance (line DP444 BG/RR) are treated with the desired product against the cotton ball worm (Heliothis armigera).
(§4) After the desired time, the kill in % is determined 100% means that all the caterpillars were killed; 0% means that no caterpillars were killed.

Spodoptera frugiperda [1] = assay: Spodoptera frugiperda test (leaf application), transgenic cotton
From the text: as §1, §2, §3
Individually potted transgenic cotton plants with Lepidoptera resistance and herbicide resistance (line DP444 BG/RR) are treated with the desired product against the army worm (Spodoptera frugiperda)
as §4

Spodoptera exigua = Spodoptera exigua test (leaf application), transgenic maize
From the text: as §1, §2, §3
Pots each holding 5 transgenic maize plants with Lepidoptera, Coleoptera and/or herbicide resistance are treated in 2 replications against the small mottled willow (Spodoptera exigua).
as §4

Spodoptera frugiperda [2] = assay: Spodoptera frugiperda test (leaf application), transgenic maize
From the text: as §1, §2, §3
Pots each holding 5 transgenic maize plants with Lepidoptera, Coleoptera and/or herbicide resistance are treated in 2 replications against the army worm (Spodoptera frugiperda).
as §4

Spodoptera frugiperda [3] = assay: Spodoptera frugiperda test (drench application), transgenic maize
From the text: as §1, §2, §3
The earth of the pots each with 5 transgenic maize plants with Lepidoptera, Coleoptera and/or herbicide resistance is drenched with the desired product. Then, the plants are infected with larvae of the army worm (Spodoptera frugiperda).
as §4

CNC(=O)c1cc(Cl)cc(C)c1NC(=O)c1cc(Br)nn1-c1ncccc1Cl [(I-1)]
Kill in % after 4 d (Aphis gossypii; 0.16 ppm): 0% | Kill in % after 4 d (Heliothis armigera; 0.032 ppm): 50% | Kill in % after 4 d (Spodoptera frugiperda [1]; 0.032 ppm): 70% | Kill in % after 6 d (Spodoptera frugiperda [1]; 0.032 ppm): 15% | Kill in % after 4 d (Spodoptera exigua; 0.032 ppm): 0% | Kill in % after 1 d (Spodoptera exigua; 0.16 ppm): 0% | Kill in % after 4 d (Spodoptera exigua; 0.16 ppm): 0% | Kill in % after 4 d (Spodoptera frugiperda [2]; 0.0064 ppm): 0% | Kill in % after 1 d (Spodoptera frugiperda [2]; 0.16 ppm): 0% | Kill in % after 4 d (Spodoptera frugiperda [3]; 4 ppm): 0% | Kill in % after 1 d (Spodoptera frugiperda [3]; 20 ppm): 30% | Kill in % after 3 d (Spodoptera frugiperda [3]; 20 ppm): 45% | Kill in % after 4 d (Spodoptera frugiperda [3]; 20 ppm): 50%

CN/C(=N\[N+](=O)[O-])NCc1cnc(Cl)s1 [Clothianidin]
Kill in % after 4 d (Heliothis armigera; 0.16 ppm): 0% | Kill in % after 4 d (Spodoptera frugiperda [1]; 0.16 ppm): 0% | Kill in % after 1 d (Spodoptera exigua; 4 ppm): 0% | Kill in % after 4 d (Spodoptera frugiperda [3]; 4 ppm): 10%

N#Cc1nn(-c2c(Cl)cc(C(F)(F)F)cc2Cl)c(N)c1[S+]([O-])C(F)(F)F (stereo not drawn) [Fipronil]
Kill in % after 4 d (Aphis gossypii; 4 ppm): 25% | Kill in % after 4 d (Spodoptera exigua; 4 ppm): 0% | Kill in % after 4 d (Spodoptera frugiperda [3]; 20 ppm): 0%

O=[N+]([O-])NC1=NCCN1Cc1ccc(Cl)nc1 [Imidacloprid]
Kill in % after 6 d (Spodoptera frugiperda [1]; 4 ppm): 10% | Kill in % after 1 d (Spodoptera exigua; 4 ppm): 0% | Kill in % after 1 d (Spodoptera frugiperda [2]; 4 ppm): 0% | Kill in % after 3 d (Spodoptera frugiperda [3]; 4 ppm): 0%

Abamectin
Kill in % after 4 d (Heliothis armigera; 0.16 ppm): 30% | Kill in % after 4 d (Spodoptera exigua; 0.16 ppm): 35% | Kill in % after 1 d (Spodoptera frugiperda [2]; 0.16 ppm): 10% | Kill in % after 1 d (Spodoptera frugiperda [3]; 4 ppm): 0% | Kill in % after 4 d (Spodoptera frugiperda [3]; 4 ppm): 0%

Spinosad
Kill in % after 4 d (Heliothis armigera; 0.16 ppm): 20% | Kill in % after 4 d (Spodoptera exigua; 0.16 ppm): 20% | Kill in % after 4 d (Spodoptera frugiperda [2]; 0.16 ppm): 0% | Kill in % after 4 d (Spodoptera frugiperda [3]; 4 ppm): 0%
